Laboratory results published in PMC7129916 (Clinical Microbiology and Infection, 2015).
≈ marks a conversion by molar mass, not a printed value. Like-named read-outs stand apart in the source and are kept apart here.

Columns and labels:
S. pneumoniae (Sp) = assay: microbe, parasite or virus in culture; type: cell-based; conditions: Streptococcus pneumoniae
M. catarrhalis (Mc) = assay: microbe, parasite or virus in culture; type: cell-based; conditions: Moraxella catarrhalis
group B streptococci = type: cell-based
[1] = test system: viridans Streptococci (S. mitis, S. oralis); type: cell-based; conditions: susceptible strains, salivary concentrations
[2] = test system: beta1-integrin in human tendon cells
M. catarrhalis [3] = assay: microbe, parasite or virus in culture; type: cell-based; conditions: Moraxella catarrhalis
H. influenzae (Hi) = assay: microbe, parasite or virus in culture; type: cell-based; conditions: Haemophilus influenzae
[4] = test system: S. pneumoniae with reduced susceptibility to ciprofloxacin; assay: microbe, parasite or virus in culture; type: cell-based
S. pneumoniae [5] = test system: S. pneumoniae
S. pneumoniae [6] = assay: microbe, parasite or virus in culture; type: cell-based; conditions: for susceptible (%): DIN breakpoints
[7] = test system: viridans group streptococci; assay: organism not typed; type: cell-based
H. influenzae = assay: microbe, parasite or virus in culture; type: cell-based
M. catarrhalis [8] = assay: microbe, parasite or virus in culture; type: cell-based
[9] = type: in vivo, human; conditions: after 6 months
invasive GAS isolates = type: cell-based, S. pyogenes

Molecule | MIC90 (S. pneumoniae (Sp)) [µg/mL] | MIC90 (M. catarrhalis (Mc)) [µg/mL] | susceptibility of all strains (group B streptococci) | %I (S. pneumoniae [5]; 2002 (n = 103)) [%] | %S (S. pneumoniae [5]; 2002 (n = 103)) [%] | %I (S. pneumoniae [5]; 2003 (n = 137)) [%] | %R (S. pneumoniae [5]; 2003 (n = 137)) [%] | %S (S. pneumoniae [5]; 2003 (n = 137)) [%] | %I (S. pneumoniae [5]; 2004 (n = 110)) [%] | %R (S. pneumoniae [5]; 2004 (n = 110)) [%] | %S (S. pneumoniae [5]; 2004 (n = 110)) [%] | MIC50 (M. catarrhalis (Mc)) [µg/mL] | further results
C[C@H]1c2cccc(O)c2C(=O)C2=C(O)[C@]3(O)C(=O)C(C(N)=O)=C(O)[C@@H](N(C)C)[C@@H]3[C@@H](O)[C@@H]21 [doxycycline] | 8 (≈ 18 µM) | 0.25 (≈ 0.563 µM) |  |  |  |  |  |  |  |  |  |  | 
C[C@H]1COc2c(N3CCN(C)CC3)c(F)cc3c(=O)c(C(=O)O)cn1c23 [levofloxacin] | 1 (≈ 2.77 µM) | 0.06 (≈ 0.166 µM) | susceptible | 3 | 96 | 0.7 | 1.5 | 97.8 | 0 | 0 | 100 | 0.03 (≈ 0.083 µM) | time to eradication [1]: 12 to 24 h; amount of beta1-integrin vs untreated control ([2]; 3 mg/l, 1-4 days): no effect; MIC50 (M. catarrhalis [3]): ≤ 0.03 µg/mL; MIC (M. catarrhalis [3]; read-out: MIC 10» (second value)): 1 µg/mL (≈ 2.77 µM); MIC50 (H. influenzae (Hi)): 0.03 µg/mL (≈ 0.083 µM); MIC90 (H. influenzae (Hi)): 0.03 µg/mL (≈ 0.083 µM); MIC50 ([4]; Streptococcus pneumoniae): 0.5 µg/mL (≈ 1.38 µM); MIC90 ([4]; Streptococcus pneumoniae): 1 µg/mL (≈ 2.77 µM); MIC90 ([4]; ciprofloxacin MIC ≥8 mg/L): 8; %R (S. pneumoniae [5]; 2002 (n = 103)): 1%; MIC50 (S. pneumoniae (Sp)): 1 µg/mL (≈ 2.77 µM); MIC90 (S. pneumoniae [6]; n = 426): 1 mg/L (≈ 2.77 µM)
quinupristin/dalfopristin |  |  | susceptible |  |  |  |  |  |  |  |  |  | 
CO/N=C1\CN(c2nc3c(cc2F)c(=O)c(C(=O)O)cn3C2CC2)CC1CN (stereo not drawn) [gemifloxacin] |  |  |  |  |  |  |  |  |  |  |  |  | MIC50 (M. catarrhalis [3]): ≤ 0.12 µg/mL
CC[C@H]1OC(=O)[C@H](C)[C@@H](O[C@H]2C[C@@](C)(OC)[C@@H](O)[C@H](C)O2)[C@H](C)[C@@H](O[C@@H]2O[C@H](C)C[C@H](N(C)C)[C@H]2O)[C@](C)(O)C[C@@H](C)C(=O)[C@H](C)[C@@H](O)[C@]1(C)O [erythromycin] |  |  |  | 0 | 56.9 | 1.4 | 38.8 | 59.8 | 0 | 35.5 | 64.5 |  | %R (S. pneumoniae [5]; 2002 (n = 103)): 43.1%; MIC ([7]; S. sanguis mef(A)): 4 µg/mL (≈ 5.45 µM)
teicoplanin |  |  | susceptible |  |  |  |  |  |  |  |  |  | 
CC[C@H]1OC(=O)[C@H](C)[C@@H](O[C@H]2C[C@@](C)(OC)[C@@H](O)[C@H](C)O2)[C@H](C)[C@@H](O[C@@H]2O[C@H](C)C[C@H](N(C)C)[C@H]2O)[C@](C)(OC)C[C@@H](C)C(=O)[C@H](C)[C@@H](O)[C@]1(C)O [clarithromycin] |  |  |  | 0 | 58.8 | 0 | 38.7 | 61.3 | 1 | 34.5 | 64.5 |  | susceptible (%) (H. influenzae): 4.5%; susceptible (%) (S. pneumoniae [6]): 85.7%
CC1(C)S[C@@H]2[C@H](NC(=O)Cc3ccccc3)C(=O)N2[C@H]1C(=O)O [penicillin] | 0.5 (≈ 1.5 µM) | 64 (≈ 191 µM) | susceptible | 31.1 | 46.6 | 55.5 | 5 | 39.5 | 30 | 11 | 59 | 64 (≈ 191 µM) | susceptible (%) (M. catarrhalis [8]): 9.8%; MIC50 (H. influenzae (Hi)): 1 µg/mL (≈ 2.99 µM); MIC90 (H. influenzae (Hi)): 64 µg/mL (≈ 191 µM); %R (S. pneumoniae [5]; 2002 (n = 103)): 22.3%; susceptible (%) (H. influenzae): 1.0%; MIC50 (S. pneumoniae (Sp)): 0.03 µg/mL (≈ 0.0897 µM); susceptible (%) (S. pneumoniae [6]): 93.3%
O=C(O)c1cn(C2CC2)c2cc(N3CCNCC3)c(F)cc2c1=O [ciprofloxacin] | 2 (≈ 6.04 µM) | 0.06 (≈ 0.181 µM) |  |  |  |  |  |  |  |  |  | 0.06 (≈ 0.181 µM) | amount of beta1-integrin vs untreated control [2]: significant decrease; MIC50 (S. pneumoniae (Sp)): 1 µg/mL (≈ 3.02 µM)
CN(C)[C@@H]1C(O)=C(C(N)=O)C(=O)[C@@]2(O)C(O)=C3C(=O)c4c(O)cccc4[C@@](C)(O)[C@H]3C[C@@H]12 [tetracycline] |  |  |  |  |  |  |  |  |  |  |  |  | mean per cent reduction, inflammatory lesions [9]: 56%; mean per cent reduction, non-inflammatory lesions [9]: 45%; resistant isolates (invasive GAS isolates): 50%
amoxicillin/clavulanate |  |  |  |  |  |  |  |  |  |  |  |  | susceptible (%) (M. catarrhalis [8]): 99.1%; susceptible (%) (H. influenzae): 87.9%
CO/N=C(\C(=O)N[C@@H]1C(=O)N2C(C(=O)O)=C(COC(C)=O)CS[C@H]12)c1csc(N)n1 [cefotaxime] |  |  |  | 3.8 | 95.2 | 4.4 | 0.6 | 95 | 3.8 | 0 | 96.2 |  | %R (S. pneumoniae [5]; 2002 (n = 103)): 1%
CN[C@H](CC(C)C)C(=O)N[C@H]1C(=O)N[C@@H](CC(N)=O)C(=O)N[C@H]2C(=O)N[C@H]3C(=O)N[C@H](C(=O)N[C@H](C(=O)O)c4cc(O)cc(O)c4-c4cc3ccc4O)[C@H](O)c3ccc(c(Cl)c3)Oc3cc2cc(c3O[C@@H]2O[C@H](CO)[C@@H](O)[C@H](O)[C@H]2O[C@H]2C[C@](C)(N)[C@H](O)[C@H](C)O2)Oc2ccc(cc2Cl)[C@H]1O [vancomycin] |  |  | susceptible |  |  |  |  |  |  |  |  |  | %I (S. pneumoniae [5]): 0%; %R (S. pneumoniae [5]): 0%; %S (S. pneumoniae [5]): 100%
Quinupristin-Dalfopristin |  |  |  | 5.8 | 94.2 | 0 | 0 | 100 | 1 | 0 | 99 |  | %R (S. pneumoniae [5]; 2002 (n = 103)): 0%
CO/N=C(\C(=O)N[C@@H]1C(=O)N2C(C(=O)O)=C(COC(N)=O)CS[C@H]12)c1ccco1 [cefuroxime] | 1 (≈ 2.36 µM) |  |  |  |  |  |  |  |  |  |  | 1 (≈ 2.36 µM) | MIC50 (H. influenzae (Hi)): 1 µg/mL (≈ 2.36 µM)
CO/N=C(\C(=O)N[C@@H]1C(=O)N2C(C(=O)O)=C(CSc3nc(=O)c(=O)[nH]n3C)CS[C@H]12)c1csc(N)n1 [ceftriaxone] | 0.25 (≈ 0.451 µM) | 1 (≈ 1.8 µM) |  |  |  |  |  |  |  |  |  | 0.5 (≈ 0.902 µM) | MIC90 (H. influenzae (Hi)): 0.03 µg/mL (≈ 0.0541 µM); MIC50 (S. pneumoniae (Sp)): 0.03 µg/mL (≈ 0.0541 µM)
CC(=O)NC[C@H]1CN(c2ccc(N3CCOCC3)c(F)c2)C(=O)O1 [linezolid] |  |  |  |  |  |  |  |  |  |  |  |  | %I (S. pneumoniae [5]): 0%; %R (S. pneumoniae [5]): 0%; %S (S. pneumoniae [5]): 100%; MIC [7]: 0.5 µg/mL (≈ 1.48 µM)
CC1(C)S[C@@H]2[C@H](NC(=O)[C@H](N)c3ccccc3)C(=O)N2[C@H]1C(=O)O [ampicillin] | 0.25 (≈ 0.715 µM) | 4 (≈ 11.4 µM) | susceptible |  |  |  |  |  |  |  |  | 1 (≈ 2.86 µM) | MIC50 (H. influenzae (Hi)): 0.5 µg/mL (≈ 1.43 µM)
